# Results from patent US20070259439A1, “Determination of antibiotic concentration in bone” (Wyeth, priority 2006, published 2007).
# Marks after values point to notes of the source that are not given here.
# Tests used:
# [1] = in vivo; settings: rat
# Description: Absolute extraction recovery (AbsER): Bone is a heterogeneous tissue and, unlike with a plasma or urine method validation, the extraction recovery cannot be determined with a drug spiked rat bone QC sample. Therefore, it is necessary to measure a virtual known amount of drug in an incurred rat bone sample to determine the absolute extraction recovery. Using combusted IncRB samples from Group B (rats administered radio labeled ^14C-tigecycline), the amount of labeled drug in bone was measured using a liquid scintillation counter. Four aliquots of IncRB Group B (0.1 grams) were accurately weighed, placed into combustion cones, and allowed to air dry for approximately 3 days. These 4 samples were then oxidized in a Model 307/Oximate 80 sample oxidizer, using Carbosorb® E (7 ml) as a trapping agent and PermalFluor® ET (10 ml) as a scintillant. […] The oxidized samples were counted in a Packard (Perkin Elmer) liquid scintillation counter (LSC) using a toluene standard curve. The ng-equiv/ml concentrations were calculated using specific activity of the dosing solution.
# In parallel, five aliquots of IncRB Group B (0.1 gram) were weighed. […]
# The absolute extraction recovery was determined using the following equation: […]
# [total amount of tigecycline per gram of bone (Group B, determined by LC/MS/MS)]/[total amount of tigecycline per gram of bone (Group B, after combustion as determined by LSC)]×100
# [2] = test system: Bacillus cereus ATCC 11778; experiment: Verification of tigecycline microbiological activity (agar well diffusion bioassay); format: cell-based; settings: for Zone Size, Sample: n = 3
# Description: Standard Curve Preparation: A stock solution of tigecycline standard powder, at a concentration of 1000 μg/ml, was prepared in normal saline. Dilutions were prepared in normal saline at a concentration range of 4, 2, 1 and 0.5, 0.25, and 0.125 μg/ml for the preparation of the standard curve. The internal standard (1 μg/ml) was also made from stock solution.
# Preparation of Inoculum: An overnight trypticase soy agar blood plate culture (incubated at 30° C.) of Bacillus cereus ATCC 11778 was adjusted to a McFarland 0.5 standard in saline. This suspension yields a bacterial density of approximately 10^8 colony forming units (CFU)/ml.
# Preparation of Bioassay Agar Plates: The agar medium was prepared by adding nutrient broth (8 g) and agarose (11 g or […]) per liter of distilled water. After autoclaving at 121° C. for 15 minutes, the medium was allowed to equilibrate to a temperature of 48-50° C. for approximately 1 hour in a water bath. The adjusted B. cereus culture was used to inoculate the cooled agar to a final concentration of 1% (1 ml/100 ml). A volume of 100 ml is added to a Nunc bioassay dish and the agar allowed to solidify at room temperature on a level surface. After cooling, wells were cut into the surface of the agar assay plate using a vacuum well cutting device. The standard curve and unknown samples were placed into the wells (50 μl) in a predetermined array with three wells each per concentration. An internal standard was also tested in triplicate. The pulverized bone samples (and standards for that experiment) were overlaid with 1.1% agarose (50 μl) to maintain contact with the seeded agar. The plates were pre-diffused at 4° C. for two hours, then incubated at 30° C. for 18-24 hours.
# Determination of antibiotic concentrations in IncRB samples: The diameters of the zones of inhibition for standards and samples were measured using electronic calipers. The concentrations of the standard curve were then plotted on a semilogarithmic scale vs their corresponding zone diameters to give a standard regression curve. The concentrations of the samples and internal standard were determined by comparing the mean zone size of the samples to the zone sizes of the standard curve and their corresponding concentration. A bioassay data analysis program was used to perform the calculations and plots.
# [3] = Bone Extract (non-neutralized) (pH 1.7), IncRB Group B
smiles,measurement,setting,value
"CN(C)c1cc(NC(=O)CNC(C)(C)C)c(O)c2c1C[C@H]1C[C@H]3[C@H](N(C)C)C(O)=C(C(N)=O)C(=O)[C@@]3(O)C(O)=C1C2=O [tigecycline, Tigecycline]",concentration at 4 h,[1],3190 ng/g
same,Measured conc.,[1]; 4 h,4137^a ng-equivalent/g of bone
same,"Zone Size, Sample minus diluent",[2]; [3],11.8 mm
same,"Zone Size, Sample",[2]; [3],33.3 mm
same,"Zone Size, Sample minus diluent",[2]; Neutralized Bone Extract A (pH 7.0),0 mm
same,"Zone Size, Sample","[2]; Neutralized Bone Extract A (pH 7.0), neutralization prior to methanol evaporation",0 mm
same,"Zone Size, Sample minus diluent",[2]; Neutralized Bone Extract B (pH 7.0),0 mm
same,"Zone Size, Sample","[2]; Neutralized Bone Extract B (pH 7.0), neutralization after methanol evaporation",0 mm
